Data reported in PMC6135396, “Repurposing antimalarial aminoquinolines and related compounds for treatment of retinal neovascularization” (PLoS ONE, 2018).

Assays:
[1] = test system: human retinal microvascular endothelial cells (HRECs); test: In vitro HREC tube formation assay; assay type: cell-based; settings: for Stimulation of HREC endothelial tube formation: factor added alone
Procedure: In vitro tube formation assays were carried out as previously described. Briefly, near confluent microvascular endothelial cells were pretreated with VEGF (100 ng/ml) for 2 h and then treated for 24 h with test compounds at serial concentrations, as indicated. Cells without VEGF treatment or with VEGF only were used as control. The cells were then detached and plated sparsely (2.5 ×10^4/well) on 24-well plates coated with 12.5% (v/v) Matrigel (BD, Franklin Lakes, NJ) and left overnight. The medium was then aspirated and 250 μl/well of 12.5% Matrigel was overlaid on the cells for 2 h to allow the polymerization of Matrigel, followed by addition of 500 μl/well of basal medium MCD131 with 10% fetal calf serum (FCS) for 24 h. The following day, the culture plates were observed under a phase contrast microscope and photographed at random in five fields (×10). The tubule length (mm/mm^2) per microscope field was quantified.

[2] = Cytotoxicity, ATP-Lite, Fa2N-4 immortalized human hepatocytes; assay type: cell-based; settings: ATP-lite assay, Fa2-N4 cells
Procedure: (§1) Fa2N-4 immortalized human hepatocytes (Xenotech) or HREC cells were grown to subconfluency in wells of a 96-well plate and exposed to different concentrations of compounds for 24 h after which the cells were washed and the media and compounds replaced. The cells were returned to the incubator for another 24 h. The extent of cell death (cell lysis) was determined by ATP-Lite reagent (Perkin-Elmer).

APJ [3] = biological target: T1, APJ (Homo sapiens, UniProt P35414); test: APJ cAMP assay (primary, cAMP HitHunter, CHO-K1-APJ cells); assay type: cell-based; design: host or cells: CHO-K1 (CHO-K1-APJ / CHO-k1-AGTRL1)
T1 sequence (P35414 1-380): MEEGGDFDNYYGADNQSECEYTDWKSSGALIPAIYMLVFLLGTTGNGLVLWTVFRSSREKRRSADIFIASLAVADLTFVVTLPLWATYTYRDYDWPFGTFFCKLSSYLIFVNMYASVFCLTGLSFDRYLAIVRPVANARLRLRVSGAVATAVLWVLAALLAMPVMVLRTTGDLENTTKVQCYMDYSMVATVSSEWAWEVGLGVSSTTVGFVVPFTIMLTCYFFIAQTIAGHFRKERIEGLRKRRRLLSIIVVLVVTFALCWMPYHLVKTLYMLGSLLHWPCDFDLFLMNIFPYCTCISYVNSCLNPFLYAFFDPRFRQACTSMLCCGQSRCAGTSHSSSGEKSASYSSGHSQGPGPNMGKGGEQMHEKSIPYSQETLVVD
Procedure: (§2) To identify small-molecule antagonists of the apelin receptor (APJ) we interrogated the SBP compound file of ~425,000 compounds using CHO-k1-AGTRL1 cells overexpressing human APJ and a competitive immunoassay of intracellular cAMP [59]. The compound file was screened at a concentration of 10 μM. For all 333 plates assayed, the average Z-factor = 0.68 and the average S/B = 8.2, indicating a robust assay performance. […] There were 2550 compounds that met this criterion, representing a hit rate of ~0.6%. […] Included in this hit set was a series of aminoquinolines, exemplified by compound 1 (Fig 1B). […] As part of an initial hit-validation strategy, these compounds and three other commercially available analogs were purchased for further testing. The purity and identify of all compounds were confirmed by NMR and LC-MS, and they were subsequently retested in a battery of cell-based assays of APJ function and counter screens. […] (Fig 1D).
(§3) PathHunter™ GPCR Arrestin and cAMP Hunter™ cell lines (DiscoveRx Corp., Fremont, CA) were used to assay G-protein-dependent signaling and β-arrestin recruitment to APJ. CHO-K1 cells stably expressing APJ (CHO-K1-APJ) or AT1 (CHO-K1-AT1) with β-arrestin/β-galactosidase enzyme fragment complementation constructs were maintained in HAM's F-12 medium (Hyclone, Logan, UT) supplemented with 10% FBS, 1X Penicillin-Streptomycin-Glutamine (Invitrogen; Carlsbad, CA), 300 μg/ml hygromycin (EMD Biosciences, San Diego, CA), and 800 μg/ml Geneticin (Cellgro, Manassas, VA). Primary Human Retinal Microvascular Endothelial Cells (HRECs) were purchased from Cell Systems (Kirkland, WA) and maintained in Complete Classic Medium with CultureBoost-R™ (Cell Systems). Parent CHO-K1 cells were obtained from ATCC and maintained in HAM’s F-12 medium supplemented with 10% FBS, and1X Penicillin-Streptomycin-Glutamine (Invitrogen; Carlsbad, CA). All cells were incubated at 37°C (5% CO2, 95% relative humidity) and maintained at less than 70% to 80% confluence (approximately 75,000 cells/cm^2). Cell heterologously expressing APJ or AT1 were not used after 10 passages. HRECs were not used in any experiments after five passages.
(§4) All reagents unless otherwise specified are components of the cAMP HitHunter (DiscoveRx) kit. Ligand Buffer + 60 μM Forskolin (Cayman Chemical, Ann Arbor, MI) was made fresh on the day of the experiment and used for the dilution of positive and negative controls as well as all peptides. CHO-K1-APJ cells were dispensed into a 1536-well tissue culture microplate (Corning, Corning, NY) using a Multidrop at a seeding density of 1,000 cells/well and returned to the incubator. The next day, the cell culture media was removed and replaced with 15 μl/well of assay buffer (1X HBSS, 10 mM HEPES) containing anti-cAMP antibody (DiscoveRx). […] Plates were incubated at room temperature in the dark for 3 hours prior to chemiluminescence detection on an EnVision (Perkin Elmer) using a counting time of 1 s/well.

[4] = biological target: T2, angiotensin II type 1 (AT1) (Homo sapiens, UniProt P30556); test: AT1 β-arrestin recruitment counter assay (CHO-K1-AT1); assay type: cell-based
T2 construct: β-galactosidase enzyme fragment (enzyme fragment complementation construct); host or cells: CHO-K1 (CHO-K1-AT1, PathHunter)
T2 sequence (P30556 1-359): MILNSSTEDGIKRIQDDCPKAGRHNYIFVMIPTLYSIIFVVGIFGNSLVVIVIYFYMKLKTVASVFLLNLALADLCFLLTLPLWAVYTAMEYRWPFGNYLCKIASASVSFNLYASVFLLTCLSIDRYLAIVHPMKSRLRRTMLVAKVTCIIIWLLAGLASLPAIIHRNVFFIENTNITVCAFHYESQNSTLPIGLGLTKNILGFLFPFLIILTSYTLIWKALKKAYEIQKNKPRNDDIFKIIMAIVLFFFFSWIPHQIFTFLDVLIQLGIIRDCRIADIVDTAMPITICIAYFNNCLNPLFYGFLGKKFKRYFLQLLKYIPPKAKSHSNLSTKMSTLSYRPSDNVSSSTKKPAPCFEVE
Procedure: as §3
(§5) CHO-K1 cells engineered to over-express APJ or AT1, and β-arrestin were removed from flasks using TrypLE Select (1X), no phenol red (Life Technologies, Grand Island, NY), centrifuged, and resuspended in CP2 Reagent (DiscoveRx, Fremont, CA). Cells were counted using a Countess Automated Cell Counter (Invitrogen, Carlsbad, CA) and 5,000 cells/well were plated in a 384-well tissue culture treated microplate (Corning, Corning, NY). All plates were incubated overnight at 37°C, 5% CO2 in a final volume of 25 μl/well. Following incubation, 5 μl of peptides (10-point concentrations) and controls prepared in ligand buffer (1X HBSS, 10 mM HEPES, 0.1% BSA) were added to cells and incubated at 37°C for 1.5 h. Using a Multidrop Combi Reagent Dispenser (Thermo Scientific), 12 μl of Detection Reagent (DiscoveRx) comprised of substrate and co-factors was added to all wells and incubated at room temperature in the dark for 1 h. Chemiluminescent signal was detected on an EnVision Multi-label plate reader (Perkin Elmer) using a counting time of 1 s/well. The robustness of data from each screening plate and run was monitored by Z’ and Signal Window calculation.

APJ [5] = biological target: T1, APJ; test: APJ β-arrestin recruitment assay (PathHunter, CHO-K1-APJ); assay type: cell-based; design: β-galactosidase enzyme fragment (enzyme fragment complementation construct); host or cells: CHO-K1 (CHO-K1-APJ, PathHunter); settings: for IC50: secondary assay, Ap13-mediated β-arrestin recruitment
Procedure: as §3, §5

parental CHO-K1 cells = test: Parental cAMP counter assay (cells lacking APJ); assay type: cell-based; settings: Cricetulus griseus
Procedure: as §2, §3, §4

HRECs [6] = test: Cytotoxicity, ATP-Lite, HRECs; assay type: cell-based; settings: tested up to 100 μM
Procedure: as §1

HRECs [7] = settings: VEGF 100 ng/mL, Ap13 10 nM
Procedure: Migration was determined by the QCM™ chemotaxis 5 μm 96-well cell migration assay (Chemicon International, Inc.) as per the manufacture’s protocol. […] After 16 h, cells that migrated to the basal side of the chamber insert membrane were detached, lysed and detected using CyQuant GR™ dye. Migration is expressed as percent increase in migrated cells compared to untreated cells.

HRECs [8] = settings: VEGF 100 ng/mL, Ap13 10 nM; remark: listed apart in the source
Procedure: The proliferation of HRECs was monitored by the crystal violet assay as described in our previous publication. […] After washing three times with PBS, the plates were air-dried and the remaining stain was dissolved in, 10% acetic acid and absorbance measured with a microplate reader at 540 nm.

[9] = Fa2N-4 immortalized human hepatocytes

Compound	IC50 (APJ [3]) [µM]	IC50 [4] [µM]	Antagonism of Ap13-mediated recruitment of β-arrestin (APJ [5])	IC50 (APJ [5]) [µM]	IC50 (parental CHO-K1 cells) [µM]	other results
CSCC[C@H](NC(=O)[C@@H]1CCCN1C(=O)CNC(=O)[C@H](CCCCN)NC(=O)[C@H](Cc1c[nH]cn1)NC(=O)[C@H](CO)NC(=O)[C@H](CC(C)C)NC(=O)[C@H](CCCNC(=N)N)NC(=O)[C@@H]1CCCN1C(=O)[C@H](CCCNC(=N)N)NC(=O)[C@@H](N)CCC(N)=O)C(=O)N1CCC[C@H]1C(=O)N[C@@H](Cc1ccccc1)C(=O)O [Ap13, apelin-13]						Stimulation of HREC endothelial tube formation [1]: stimulated the formation of endothelial tubes
NC(=O)c1ccc(Nc2ccnc3cc(Cl)ccc23)cc1 [Compound 1, 4-((7-chloroquinolin-4-yl)amino)benzamide]	0.556 ± 0.105	> 40	neither AQ nor 1, 3, 4, 5, or 6 antagonized	> 99	> 99	IC50 at 48 h [2, 9]: > 50 µM
O=C(OCC(O)CO)c1ccccc1Nc1ccnc2cc(Cl)ccc12 (stereo not drawn) [Compound 3, glafenine]	1.15 ± 0.025	> 99	neither AQ nor 1, 3, 4, 5, or 6 antagonized	> 99	> 99	IC50 at 48 h [2, 9]: > 50 µM
COc1ccc(Nc2ccnc3cc(Cl)ccc23)cc1 [Compound 4, 7-chloro-N-(4-methoxyphenyl)quinolin-4-amine]	1.42 ± 0.038	> 40	neither AQ nor 1, 3, 4, 5, or 6 antagonized	> 40	> 99	IC50 at 48 h [2]: > 50 µM
O=C(O)c1ccccc1Nc1ccnc2cc(Cl)ccc12 [Compound 5, 2-((7-chloroquinolin-4-yl)amino)benzoic acid]	0.937 ± 0.084	> 40	neither AQ nor 1, 3, 4, 5, or 6 antagonized	> 40	> 99	
O=C(c1ccccc1Nc1ccnc2cc(Cl)ccc12)N1CCOCC1 [Compound 6, (2-((7-chloroquinolin-4-yl)amino)phenyl)(morpholino) methanone]	23.5 ± 0.161	> 40	neither AQ nor 1, 3, 4, 5, or 6 antagonized	> 99	> 99	
CCNCc1cc(Nc2ccnc3cc(Cl)ccc23)ccc1O [DEAQ, desethylamodiaquine]						APJ antagonism in the APJ cAMP assay (APJ [3]): effective APJ antagonist equipotent to the parent AQ
O=C(Oc1coc(CSc2ncccn2)cc1=O)c1ccc([N+](=O)[O-])cc1 [ML221, 4-oxo-6-((pyrimidin-2-ylthio)methyl)-4H-pyran-3-yl 4-nitrobenzoate]						Cytotoxicity to HRECs (HRECs [6]): Neither ML221 nor AQ were significantly toxic; Effect on Ap13-dependent increase in HREC tube formation ([1]; Ap13-induced, concentration-dependent): blocked Ap13-dependent increases in tube formation; Effect on VEGF-induced HREC tube formation ([1]; VEGF 100 ng/mL, absence of exogenous Ap13): A similar effect was observed
VEGF						Effect on HREC migration (HRECs [7]): stimulated HREC proliferation and migration; Stimulation of HREC endothelial tube formation [1]: stimulated the formation of endothelial tubes; Effect on HREC proliferation (HRECs [8]): stimulated HREC proliferation and migration
